Molecules are shown by their SMILES.

Consider two compounds from patent publication US20130136766A1, “EFFECTIVE FRACTION FROM THE FRUITING BODIES OF GANODERMA LUCIDUM, EXTRACTION METHOD, USE AND PREPARATION THEREOF” (Shanghai University of Traditional Chinese Medicine, priority 2010, published 2013).

The subject of this test is STZ-induced type 2 diabetic model rats. Kind of test: Drug potency on STZ-induced type 2 diabetic model rats (fasting blood glucose). In kind it is in vivo. Here is the method:
The extract from Example 13 was trialed for its drug potency on STZ-induced type 2 diabetic model rats in Center for Drug Safety Evaluation, Shanghai University of Traditional Chinese Medicine.
FYGL was orally administered for various groups as: type 2 diabetes control group with saline 20 mL/kg; type 2 diabetes group with low dose of FYGL 50 mg/kg; type 2 diabetes group with high dose of FYGL 150 mg/kg; metformin group with metformin 200 mg/kg; rosiglitazone group with rosiglitazone 3 mg/kg. Numbers of rats in each group are 10.
The symbol # indicates significant difference of the fasting blood glucose level with p<0.05 and ## indicates very significant difference with p<0.01, referred to that of type 2 diabetes control group.

Consider `CN(C)C(=N)N=C(N)N` [Metformin, metformin], for which the fasting blood glucose is, setting by setting: (10 days, metformin 200 mg/kg) 14 ± 4(#) mM; (20 days, metformin 200 mg/kg) 18 ± 5(#) mM; (30 days, metformin 200 mg/kg) 13 ± 2 (##) mM.

As for `CN(CCOc1ccc(CC2SC(=O)NC2=O)cc1)c1ccccn1` (stereo not drawn) [rosiglitazone], the fasting blood glucose (10 days, rosiglitazone 3 mg/kg) is reported as 14 ± 5(#) mM; the fasting blood glucose (20 days, rosiglitazone 3 mg/kg) is reported as 14 ± 4(#) mM; the fasting blood glucose (30 days, rosiglitazone 3 mg/kg) is reported as 12 ± 3 (##) mM.
